These are literature values, as cited in patent publication US20180125772A1, “Oral Care Compositions” (Colgate-Palmolive Company, priority 2016, published 2018).

The conditions of the series: aqueous solution, pH of no net charge.

SMILES strings stand for the structures.

Consider `NCCCC[C@H](N)C(=O)O` [lysine], for which the isoelectric point is 9.7 pH.
